Patent US6951647B2, “T cell binding ligand peptides and method of inducing a cellular immune response” (Cel-Sci Corporation, priority 2001, dated 2005)
Where no end group is shown, it is not given here.

Conditions: saline (0.15 M NaCl, pH 7.4) or WFI, 0.5-2.0 mg/ml; 2-8, 18-25 or 40 °C; pH 7.4 to 4.5; HPLC
Method: The long range stability of the peptide constructs formed using Peptide G, was carried out with the construct dissolved in saline (0.15 M NaCl, pH 7.4) or in water for injection (WFI) at a concentration of 0.5-2.0 mg/ml and stored frozen soon after preparation.

DGQEEKAGVVSTGLI [Peptide G′]
Long range stability (deamination) of peptide constructs: overcomes the long range stabilization problem of the peptide conjugates
